Reference: patent US12240816B2, “Deuterated compounds and uses thereof” (Aldeyra Therapeutics, Inc., priority 2015, dated 2025)
Where “and” joins values, the source holds several entries; their conditions need not be identical. Equal entries are not always repeated. Entries after “also recorded” stand apart in the source; their conditions may differ. Where two headings read alike, the source gives them in different places. Marks after values point to notes of the source that are not given here.

Tests used:
human hepatocytes = type: in vitro ADME
rat hippocampal cultures = assay: cells; type: cell-based
acetylcholinesterase (h) = acetylcholinesterase (h) (Homo sapiens, UniProt P22303); assay: biochemical
guanylyl cyclase (h) = guanylyl cyclase (h) (Homo sapiens, UniProt Q02108+Q02153); type: biochemical; settings: guanylyl cyclase (h) (activator effect); 1.0E−05M
[1] = target: enzyme and uptake assay panel targets (Table 36) (Homo sapiens, UniProt Q14790); assay: biochemical; type: biochemical; settings: caspase-8 (h); 1.0E−05M
[2] = target: T1, enzyme and uptake assay panel targets (Table 36) (Bos taurus, UniProt P80457); assay: biochemical; type: biochemical; settings: xanthine oxldase/superoxide 02 ^−scavenging, 1.0E−05M
T1 construct: other: xanthine oxidase/superoxide 02^−scavenging; nH; other: xanthine oxldase/superoxide 02 ^−scavenging; 1.0E−05M; ot; purified xanthine oxidase from bovine milk

[3] = target: enzyme and uptake assay panel targets (Table 36) (Homo sapiens, UniProt P43403); assay: biochemical; type: biochemical; settings: ZAP70 kinase (h); 1.0E−05M
[4] = target: enzyme and uptake assay panel targets (Table 36) (Homo sapiens, UniProt P14780); assay: biochemical; type: biochemical; settings: MMP-9 (h); 1.0E−05M; flag INTER: Test compound interferes with the assay detection method
PR (h) = target: T2, PR (h) (Homo sapiens, UniProt P06401); assay: PR (h) (agonist radioligand) binding assay; settings: 1.0E−05M
T2 construct: T47D cells (cytosol)
T2 sequence (P06401 679-933): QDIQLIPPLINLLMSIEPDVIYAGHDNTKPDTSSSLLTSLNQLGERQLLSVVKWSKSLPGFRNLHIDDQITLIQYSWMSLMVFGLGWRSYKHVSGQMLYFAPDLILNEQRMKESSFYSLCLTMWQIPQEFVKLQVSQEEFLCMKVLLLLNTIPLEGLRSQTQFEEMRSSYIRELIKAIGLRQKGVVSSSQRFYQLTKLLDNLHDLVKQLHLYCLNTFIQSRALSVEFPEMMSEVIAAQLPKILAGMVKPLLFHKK

MAO-A = MAO-A (Rattus norvegicus, UniProt P21396); assay: MAO-A (antagonist radioligand) binding assay; settings: 1.0E−05M
5-HT2B (h) = 5-HT2B (h) (Homo sapiens, UniProt P41595); assay: 5-HT2B (h) (agonist radioligand) binding assay; settings: 1.0E−05M
MT3 (ML2) = target: T3, MT3 (ML2) (Mesocricetus auratus, UniProt A0ABM2YAB8); assay: MT3 (ML2) (agonist radioligand) binding assay; settings: MT3 (ML2)(h) (agonist radioligand), 1.0E−05M
T3 sequence (A0ABM2YAB8 1-231): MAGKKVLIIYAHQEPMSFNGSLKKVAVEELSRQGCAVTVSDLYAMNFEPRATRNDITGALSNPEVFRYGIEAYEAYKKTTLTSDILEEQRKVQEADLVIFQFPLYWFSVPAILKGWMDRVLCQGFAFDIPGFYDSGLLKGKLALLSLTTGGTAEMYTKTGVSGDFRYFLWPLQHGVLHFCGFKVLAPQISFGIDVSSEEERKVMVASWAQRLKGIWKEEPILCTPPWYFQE

[5] = CFDA, Captisol formulation, 10 μM hydrogen peroxide, 5 h
[6] = CFDA, DMSO formulation, 10 μM hydrogen peroxide, 5 h
[7] = NS2 (CoreRx micro-milled, Captisol) 0.1 μM + 10 μM hydrogen peroxide, 5 h
[8] = NS2 (CoreRx micro-milled, Captisol) 1 μM + 10 μM hydrogen peroxide, 5 h
[9] = NS2 (CoreRx micro-milled, Captisol) 10 μM + 10 μM hydrogen peroxide, 5 h
[10] = NS2 (CoreRx micro-milled, Captisol) 100 μM + 10 μM hydrogen peroxide, 5 h
[11] = NS2 (CoreRx micro-milled, Captisol) 1 mM + 10 μM hydrogen peroxide, 5 h
[12] = NS2 (CoreRx micro-milled, DMSO) 0.1 μM + 10 μM hydrogen peroxide, 5 h
[13] = NS2 (CoreRx micro-milled, DMSO) 1 μM + 10 μM hydrogen peroxide, 5 h
[14] = NS2 (CoreRx micro-milled, DMSO) 10 μM + 10 μM hydrogen peroxide, 5 h
[15] = NS2 (CoreRx micro-milled, DMSO) 100 μM + 10 μM hydrogen peroxide, 5 h
[16] = NS2 (CoreRx micro-milled, DMSO) 1 mM + 10 μM hydrogen peroxide, 5 h
[17] = NS2 (J-Star non-milled, Captisol) 0.1 μM + 10 μM hydrogen peroxide, 5 h
[18] = NS2 (J-Star non-milled, Captisol) 1 μM + 10 μM hydrogen peroxide, 5 h
[19] = NS2 (J-Star non-milled, Captisol) 10 μM + 10 μM hydrogen peroxide, 5 h
[20] = NS2 (J-Star non-milled, Captisol) 100 μM + 10 μM hydrogen peroxide, 5 h
[21] = NS2 (J-Star non-milled, Captisol) 1 mM + 10 μM hydrogen peroxide, 5 h
[22] = NS2 (J-Star non-milled, DMSO) 0.1 μM + 10 μM hydrogen peroxide, 5 h
[23] = NS2 (J-Star non-milled, DMSO) 1 μM + 10 μM hydrogen peroxide, 5 h
[24] = NS2 (J-Star non-milled, DMSO) 10 μM + 10 μM hydrogen peroxide, 5 h
[25] = NS2 (J-Star non-milled, DMSO) 100 μM + 10 μM hydrogen peroxide, 5 h
[26] = NS2 (J-Star non-milled, DMSO) 1 mM + 10 μM hydrogen peroxide, 5 h
[27] = read-out: % inhibition of Control Values 1st
[28] = read-out: % inhibition of Control Values 2nd
[29] = read-out: % inhibition of Control Values Mean
[30] = read-out: % Inhibition of Control Specific Binding 1st
[31] = read-out: % Inhibition of Control Specific Binding 2nd
[32] = read-out: % Inhibition of Control Specific Binding Mean

Chain of enzyme and uptake assay panel targets (Table 36) (Homo sapiens, UniProt Q14790) (Q14790 217-479): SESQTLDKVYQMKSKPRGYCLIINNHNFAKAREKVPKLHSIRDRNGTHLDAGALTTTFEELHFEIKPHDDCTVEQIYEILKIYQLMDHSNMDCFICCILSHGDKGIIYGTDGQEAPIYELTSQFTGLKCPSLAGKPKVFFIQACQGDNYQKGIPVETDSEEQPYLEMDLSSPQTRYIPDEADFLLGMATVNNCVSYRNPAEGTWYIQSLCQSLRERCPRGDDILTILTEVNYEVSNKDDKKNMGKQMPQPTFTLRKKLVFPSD
Chain of enzyme and uptake assay panel targets (Table 36) (Homo sapiens, UniProt P14780) (P14780 94-707): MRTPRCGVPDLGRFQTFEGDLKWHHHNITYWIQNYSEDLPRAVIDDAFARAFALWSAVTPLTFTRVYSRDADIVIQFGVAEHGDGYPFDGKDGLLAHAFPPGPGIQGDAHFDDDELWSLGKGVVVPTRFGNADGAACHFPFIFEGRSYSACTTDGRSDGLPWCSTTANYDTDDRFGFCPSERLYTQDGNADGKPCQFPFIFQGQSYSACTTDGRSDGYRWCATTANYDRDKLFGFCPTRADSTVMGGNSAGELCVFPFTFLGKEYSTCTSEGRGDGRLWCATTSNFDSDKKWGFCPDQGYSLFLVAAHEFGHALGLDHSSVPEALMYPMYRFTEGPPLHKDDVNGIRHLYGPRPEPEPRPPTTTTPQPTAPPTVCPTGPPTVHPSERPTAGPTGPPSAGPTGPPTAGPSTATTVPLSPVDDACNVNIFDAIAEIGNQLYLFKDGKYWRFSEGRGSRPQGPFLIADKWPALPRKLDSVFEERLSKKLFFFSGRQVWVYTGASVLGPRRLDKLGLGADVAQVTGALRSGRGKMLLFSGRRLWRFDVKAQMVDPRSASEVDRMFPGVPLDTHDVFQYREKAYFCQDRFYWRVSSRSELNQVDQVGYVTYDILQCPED
T1 sequence (P80457 whole entry): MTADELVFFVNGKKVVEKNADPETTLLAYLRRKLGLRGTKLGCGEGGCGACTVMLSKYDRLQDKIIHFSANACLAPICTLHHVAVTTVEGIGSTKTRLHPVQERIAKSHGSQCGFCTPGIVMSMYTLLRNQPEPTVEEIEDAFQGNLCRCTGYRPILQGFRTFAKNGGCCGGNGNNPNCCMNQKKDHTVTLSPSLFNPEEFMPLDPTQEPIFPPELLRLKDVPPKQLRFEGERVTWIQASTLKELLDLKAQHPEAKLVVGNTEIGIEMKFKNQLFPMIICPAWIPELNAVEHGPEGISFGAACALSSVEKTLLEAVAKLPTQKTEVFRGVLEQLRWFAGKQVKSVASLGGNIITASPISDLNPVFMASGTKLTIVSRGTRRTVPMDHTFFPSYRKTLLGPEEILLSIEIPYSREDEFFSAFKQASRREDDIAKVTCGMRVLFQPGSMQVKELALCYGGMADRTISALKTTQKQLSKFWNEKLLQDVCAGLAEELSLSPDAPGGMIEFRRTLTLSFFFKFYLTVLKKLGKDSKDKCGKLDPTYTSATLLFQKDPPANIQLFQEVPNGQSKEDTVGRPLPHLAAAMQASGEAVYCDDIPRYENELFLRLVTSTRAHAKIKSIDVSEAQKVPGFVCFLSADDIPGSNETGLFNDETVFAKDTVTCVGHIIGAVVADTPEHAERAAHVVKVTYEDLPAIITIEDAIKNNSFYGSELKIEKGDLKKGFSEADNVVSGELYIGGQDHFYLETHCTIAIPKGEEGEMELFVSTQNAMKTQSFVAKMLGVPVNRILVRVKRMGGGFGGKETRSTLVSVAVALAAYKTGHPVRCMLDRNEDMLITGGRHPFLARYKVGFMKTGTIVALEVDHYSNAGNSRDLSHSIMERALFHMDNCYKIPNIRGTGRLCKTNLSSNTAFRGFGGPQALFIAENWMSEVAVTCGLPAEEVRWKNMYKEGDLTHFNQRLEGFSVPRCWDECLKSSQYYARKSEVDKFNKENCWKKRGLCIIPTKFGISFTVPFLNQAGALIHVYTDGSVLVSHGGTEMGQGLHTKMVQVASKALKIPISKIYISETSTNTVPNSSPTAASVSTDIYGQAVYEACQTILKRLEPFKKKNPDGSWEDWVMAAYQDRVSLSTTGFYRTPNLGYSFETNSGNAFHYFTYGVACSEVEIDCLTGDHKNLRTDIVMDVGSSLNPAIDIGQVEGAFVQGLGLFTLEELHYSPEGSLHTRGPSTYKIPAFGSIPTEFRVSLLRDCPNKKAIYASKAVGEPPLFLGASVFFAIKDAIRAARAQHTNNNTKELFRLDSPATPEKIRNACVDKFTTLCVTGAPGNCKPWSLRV
Chain of MAO-A (P21396 whole entry): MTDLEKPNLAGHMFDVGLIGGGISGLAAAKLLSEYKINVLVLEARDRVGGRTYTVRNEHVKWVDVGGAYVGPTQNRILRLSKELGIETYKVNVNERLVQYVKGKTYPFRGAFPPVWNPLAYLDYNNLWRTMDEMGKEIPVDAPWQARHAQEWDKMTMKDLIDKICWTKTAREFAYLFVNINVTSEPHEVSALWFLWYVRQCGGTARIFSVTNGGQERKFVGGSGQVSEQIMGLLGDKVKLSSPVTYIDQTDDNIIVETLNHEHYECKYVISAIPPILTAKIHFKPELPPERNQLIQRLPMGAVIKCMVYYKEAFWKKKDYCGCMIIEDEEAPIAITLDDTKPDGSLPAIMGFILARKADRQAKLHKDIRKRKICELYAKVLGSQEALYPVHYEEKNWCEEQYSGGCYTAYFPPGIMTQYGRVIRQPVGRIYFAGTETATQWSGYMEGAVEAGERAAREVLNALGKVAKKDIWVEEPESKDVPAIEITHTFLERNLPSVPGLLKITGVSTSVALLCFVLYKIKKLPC
Chain of 5-HT2B (h) (P41595 whole entry): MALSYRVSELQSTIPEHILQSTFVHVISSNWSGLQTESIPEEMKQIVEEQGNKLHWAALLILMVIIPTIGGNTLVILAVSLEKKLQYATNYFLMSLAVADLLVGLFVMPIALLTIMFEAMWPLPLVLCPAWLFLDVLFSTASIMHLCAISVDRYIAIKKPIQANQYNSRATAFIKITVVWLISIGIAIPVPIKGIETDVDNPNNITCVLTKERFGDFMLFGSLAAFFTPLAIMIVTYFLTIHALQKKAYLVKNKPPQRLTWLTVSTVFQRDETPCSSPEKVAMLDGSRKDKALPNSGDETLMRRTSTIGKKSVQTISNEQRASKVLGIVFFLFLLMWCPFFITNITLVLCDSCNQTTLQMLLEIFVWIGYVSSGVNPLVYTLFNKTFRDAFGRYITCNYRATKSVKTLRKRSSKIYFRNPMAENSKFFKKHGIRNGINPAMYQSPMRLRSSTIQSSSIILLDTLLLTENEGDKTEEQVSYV
Chain of guanylyl cyclase (h) (Q02153 whole entry): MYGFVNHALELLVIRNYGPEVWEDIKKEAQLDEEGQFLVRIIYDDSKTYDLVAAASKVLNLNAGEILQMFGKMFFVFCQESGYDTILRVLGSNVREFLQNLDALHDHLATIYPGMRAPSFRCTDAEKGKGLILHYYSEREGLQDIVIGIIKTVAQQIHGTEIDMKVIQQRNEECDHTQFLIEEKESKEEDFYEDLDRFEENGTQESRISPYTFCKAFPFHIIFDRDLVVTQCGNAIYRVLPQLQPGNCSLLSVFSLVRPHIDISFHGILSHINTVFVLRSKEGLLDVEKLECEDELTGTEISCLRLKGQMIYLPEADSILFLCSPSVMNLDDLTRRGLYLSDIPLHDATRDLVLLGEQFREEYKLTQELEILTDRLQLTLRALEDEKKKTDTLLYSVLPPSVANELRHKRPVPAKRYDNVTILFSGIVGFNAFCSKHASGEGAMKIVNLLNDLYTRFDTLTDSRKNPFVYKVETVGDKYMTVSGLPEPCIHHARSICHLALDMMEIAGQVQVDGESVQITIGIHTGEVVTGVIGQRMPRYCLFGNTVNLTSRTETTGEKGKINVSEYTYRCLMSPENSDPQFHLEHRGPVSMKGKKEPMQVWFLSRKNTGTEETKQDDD
Chain of guanylyl cyclase (h) (Q02108 whole entry): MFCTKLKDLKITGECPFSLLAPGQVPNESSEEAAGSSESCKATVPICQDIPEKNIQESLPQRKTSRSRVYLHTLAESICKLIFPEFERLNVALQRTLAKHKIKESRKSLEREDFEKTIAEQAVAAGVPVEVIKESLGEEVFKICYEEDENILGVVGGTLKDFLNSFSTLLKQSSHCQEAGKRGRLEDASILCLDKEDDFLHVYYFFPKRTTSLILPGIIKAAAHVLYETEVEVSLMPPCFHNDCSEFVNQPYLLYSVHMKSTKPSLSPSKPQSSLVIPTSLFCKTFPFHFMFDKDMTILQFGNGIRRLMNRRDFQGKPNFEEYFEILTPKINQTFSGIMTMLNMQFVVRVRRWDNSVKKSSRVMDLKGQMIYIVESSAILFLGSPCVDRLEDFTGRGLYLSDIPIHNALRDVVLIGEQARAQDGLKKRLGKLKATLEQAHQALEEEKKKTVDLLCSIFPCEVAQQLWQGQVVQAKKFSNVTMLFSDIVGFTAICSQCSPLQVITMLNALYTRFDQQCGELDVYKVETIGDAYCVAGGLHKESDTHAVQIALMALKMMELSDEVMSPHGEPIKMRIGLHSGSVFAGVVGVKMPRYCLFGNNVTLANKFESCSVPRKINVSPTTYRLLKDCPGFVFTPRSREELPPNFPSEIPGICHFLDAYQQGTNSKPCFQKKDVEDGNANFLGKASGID

SMILES: CC(C)(O)c1nc2ccc(Cl)cc2cc1N [NS2, 2-(3-amino-6-chloroquinolin-2-yl)propan-2-ol]
- metabolite profile (dog hepatocytes; NS2, 120 min, dog hepatocytes): metabolized to M1, M2, M5, and M6, with some unchanged NS2 remaining; also recorded: two different mono-oxidation products (M1 and M2) and two different glutathione (GSH) conjugates (M5 and M6)
- Peak Areas Dog (dog hepatocytes; dog, 120 min, 3 μM): 4.79E+07
- metabolite profile (rat hepatocytes; NS2, 120 min, rat hepatocytes): metabolized to M1, M7, and M8, with some unchanged NS2 remaining
- Peak Areas Rat (rat hepatocytes; rat, 120 min, 3 μM): 3.14E+08
- metabolite profile (human hepatocytes; NS2, 120 min, human hepatocytes): metabolized to M1, M7, M8, and a low amount of M9, with some unchanged NS2 remaining; also recorded: a mono-oxidation metabolite (M), two oxidation+glucuronidation metabolites (M7 and M9), and a glucuronidation metabolite (M)
- Peak Areas Human (human hepatocytes; human, 120 min, 3 μM): 4.41E+08
- metabolite profile (monkey hepatocytes; NS2, 120 min, monkey hepatocytes): metabolized to M1, M3, M4, M7, M8, and a low amount of M9, with some unchanged NS2 remaining; also recorded: a mono-oxidation metabolite (M), four oxidation+glucuronidation metabolites (M3, M4, M7, and M9), and a glucuronidation metabolite (M)
- Peak Areas Cyno Monkey (monkey hepatocytes; cynomolgus monkey, 120 min, 3 μM): 1.74E+08
- Full Efficacy Concentration (rat hippocampal cultures; [5]): 100 µM
- No effect Concentration (rat hippocampal cultures; [5]): 1 µM
- EC50 (rat hippocampal cultures; CFDA, Captisol formulation, 10 μM hydrogen peroxide, 5 h, listed as CoreRx NS2 (milled), read-out: EC50 ± SE): 7 ± 4 µM
- EC50 (rat hippocampal cultures; CFDA, Captisol formulation, 10 μM hydrogen peroxide, 5 h, listed as NS2 (J-Star), read-out: EC50 ± SE): 9.1 µM
- Full Efficacy Concentration (rat hippocampal cultures; [6]): 100 µM
- No effect Concentration (rat hippocampal cultures; [6]): 1 µM
- EC50 (rat hippocampal cultures; CFDA, DMSO formulation, 10 μM hydrogen peroxide, 5 h, values with * are estimates, listed as NS2 (CoreRx), read-out: EC50 ± SE): 9.8 µM
- EC50 (rat hippocampal cultures; CFDA, DMSO formulation, 10 μM hydrogen peroxide, 5 h, values with * are estimates, listed as NS2 (J-Star), read-out: EC50 ± SE): 2.6 µM
- Full protection concentration (rat hippocampal cultures; CFDA, both NS2 formulations and both batches): 100 µM
- no effect concentration (rat hippocampal cultures; CFDA, both formulations and batches): 1 µM
- % of Control (CFDA) (rat hippocampal cultures; [7]): 58 ± 4%
- CFDA signal, Mean (rat hippocampal cultures; [7]): 26931
- % of Control (CFDA) (rat hippocampal cultures; [8]): 64 ± 6%
- CFDA signal, Mean (rat hippocampal cultures; [8]): 29693
- % of Control (CFDA) (rat hippocampal cultures; [9]): 80 ± 8%
- CFDA signal, Mean (rat hippocampal cultures; [9]): 37577*
- % of Control (CFDA) (rat hippocampal cultures; [10]): 100 ± 6%
- CFDA signal, Mean (rat hippocampal cultures; [10]): 46508*
- % of Control (CFDA) (rat hippocampal cultures; [11]): 92 ± 07%
- CFDA signal, Mean (rat hippocampal cultures; [11]): 42889*
- % of Control (CFDA) (rat hippocampal cultures; [12]): 61 ± 2%
- CFDA signal, Mean (rat hippocampal cultures; [12]): 26314
- % of Control (CFDA) (rat hippocampal cultures; [13]): 62 ± 6%
- CFDA signal, Mean (rat hippocampal cultures; [13]): 26633
- % of Control (CFDA) (rat hippocampal cultures; [14]): 79 ± 3%
- CFDA signal, Mean (rat hippocampal cultures; [14]): 34180*
- CFDA signal, replicate wells (rat hippocampal cultures; [14]): 32661 (3×) and 34496 and 38422
- % of Control (CFDA) (rat hippocampal cultures; [15]): 101 ± 6%
- CFDA signal, Mean (rat hippocampal cultures; [15]): 43328*
- % of Control (CFDA) (rat hippocampal cultures; [16]): 90 ± 3%
- CFDA signal, Mean (rat hippocampal cultures; [16]): 38622*
- % of Control (CFDA) (rat hippocampal cultures; [17]): 60 ± 4%
- CFDA signal, Mean (rat hippocampal cultures; [17]): 24142
- % of Control (CFDA) (rat hippocampal cultures; [18]): 61 ± 3%
- CFDA signal, Mean (rat hippocampal cultures; [18]): 24338
- % of Control (CFDA) (rat hippocampal cultures; [19]): 79± 6%
- CFDA signal, Mean (rat hippocampal cultures; [19]): 31811*
- % of Control (CFDA) (rat hippocampal cultures; [20]): 93 ± 9%
- CFDA signal, Mean (rat hippocampal cultures; [20]): 37544*
- % of Control (CFDA) (rat hippocampal cultures; [21]): 98 ± 3%
- CFDA signal, Mean (rat hippocampal cultures; [21]): 39516*
- % of Control (CFDA) (rat hippocampal cultures; [22]): 60 ± 4%
- CFDA signal, Mean (rat hippocampal cultures; [22]): 24819
- % of Control (CFDA) (rat hippocampal cultures; [23]): 66 ± 6%
- CFDA signal, Mean (rat hippocampal cultures; [23]): 27524
- % of Control (CFDA) (rat hippocampal cultures; [24]): 85 ± 7%
- CFDA signal, Mean (rat hippocampal cultures; [24]): 35341*
- % of Control (CFDA) (rat hippocampal cultures; [25]): 96 ± 10%
- CFDA signal, Mean (rat hippocampal cultures; [25]): 39844*
- % of Control (CFDA) (rat hippocampal cultures; [26]): 88 ± 10%
- CFDA signal, Mean (rat hippocampal cultures; [26]): 36632*
- EC50 (rat hippocampal cultures; Rattus norvegicus, 5 h, CFDA, Captisol formulation, 10 μM hydrogen peroxide, 5 h, read-out: EC50 ± SE): 6.8 µM
- EC50 (rat hippocampal cultures; Rattus norvegicus, CFDA, across formulations and batches, read-out: EC50 range): 3 to 10 µM

SMILES: [2H]C([2H])([2H])C(O)(c1nc2ccc(Cl)cc2cc1N)C([2H])([2H])[2H] [Compound I-1]
- inhibition at 10 µM (acetylcholinesterase (h); [27]): 45.8%
- inhibition at 10 µM (acetylcholinesterase (h); [28]): 60.1%
- inhibition at 10 µM (acetylcholinesterase (h); [29]): 52.9%
- % of Control Values 1st (guanylyl cyclase (h)): 0.2%
- % of Control Values 2nd (guanylyl cyclase (h)): 0.3%
- % of Control Values Mean (guanylyl cyclase (h)): 0.2%
- % inhibition of Control Values 1st [1]: 14.7%
- % inhibition of Control Values 2nd [1]: 16.4%
- % inhibition of Control Values Mean [1]: 15.6%
- inhibition at 10 µM [2, 27]: -3.1%
- inhibition at 10 µM [2, 28]: 15.6%
- inhibition at 10 µM [2, 29]: 6.3%
- % inhibition of Control Values 1st [3]: 0.4%
- % inhibition of Control Values 2nd [3]: 1.5%
- % inhibition of Control Values Mean [3]: 1.0%
- % inhibition of Control Values 1st [4]: 4.5%
- % inhibition of Control Values 2nd [4]: 4.4%
- % inhibition of Control Values Mean [4]: 4.4%
- inhibition at 10 µM (PR (h); [30]): 58.7%
- inhibition at 10 µM (PR (h); [31]): 63.1%
- inhibition at 10 µM (PR (h); [32]): 60.9%
- inhibition at 10 µM (MAO-A; [30]): 66.4%
- inhibition at 10 µM (MAO-A; [31]): 70.7%
- inhibition at 10 µM (MAO-A; [32]): 68.5%
- inhibition at 10 µM (5-HT2B (h); [30]): 60.8%
- inhibition at 10 µM (5-HT2B (h); [31]): 64.2%
- inhibition at 10 µM (5-HT2B (h); [32]): 62.5%
- inhibition at 10 µM (MT3 (ML2); [30]): 69%
- inhibition at 10 µM (MT3 (ML2); [31]): 73.3%
- inhibition at 10 µM (MT3 (ML2); [32]): 71.1%
